# Patent US20240358684A1, “METHOD FOR ENHANCING INNATE IMMUNE RESPONSE” (Kyoto University, priority 2021, published 2024)
# Several values for one entry are separate records, joined by “and”; a condition that tells them apart may be missing. Equal entries are not always repeated.
# What was measured:
# CLK1 = molecular target: T1, CLK1 (Homo sapiens, UniProt P49759); assay: Inhibition confirmation test for CLK (off-chip mobility shift assay); assay type: biochemical; settings: ATP 10 μM; read-out: CLK1 inhibitory activity (IC50 value)
# T1 construct: Enzyme activity was measured with off-chip mobility shift assay using purified CLK protein
# T1 sequence (P49759 whole entry): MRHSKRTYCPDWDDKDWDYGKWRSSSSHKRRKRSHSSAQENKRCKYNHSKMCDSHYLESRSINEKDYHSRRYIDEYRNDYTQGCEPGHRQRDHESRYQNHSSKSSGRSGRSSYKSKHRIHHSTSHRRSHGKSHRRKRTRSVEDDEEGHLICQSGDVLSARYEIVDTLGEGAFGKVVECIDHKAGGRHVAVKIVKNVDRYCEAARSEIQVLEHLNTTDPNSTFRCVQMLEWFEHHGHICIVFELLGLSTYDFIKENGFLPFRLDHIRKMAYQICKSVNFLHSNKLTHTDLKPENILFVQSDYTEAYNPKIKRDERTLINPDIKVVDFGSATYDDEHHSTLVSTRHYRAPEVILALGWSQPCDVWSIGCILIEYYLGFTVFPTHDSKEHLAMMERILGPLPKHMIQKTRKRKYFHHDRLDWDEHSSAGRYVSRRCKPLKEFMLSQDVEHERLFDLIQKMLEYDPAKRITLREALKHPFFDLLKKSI
# Description: Enzyme activity was measured with off-chip mobility shift assay using purified CLK protein. […] The enzyme reaction was performed at room temperature for 1 hour, and the reaction was terminated by adding QuickScout Screening Assist MSA (Carna Biosciences, Inc.). A substrate peptide and a phosphorylated peptide in the enzyme reaction solution were separated and quantified using the LabChip system (Perkin-Elmer, Waltham, MA, USA), and inhibition of CLK was evaluated by calculating a product ratio using the following formula, the substrate peptide peak height (S), and the phosphorylated peptide peak height (P).
# (P/(P+S)) • P: product-derived peak • S: substrate-derived peak
# SARS-CoV-2 = assay type: cell-based
# [1] = tested on: OAS1 rs10774671 A-allele splicing; assay: RT-PCR for OAS1 alternative splicing profile in Calu-3 (A/A allele) cells; assay type: cell-based, human; settings: Calu-3, 10 μM, 24 h
structure (smiles),measurement,setting,value
N=C1NC(=O)/C(=C/c2ccc3c(c2)CCO3)S1 [compound 1],IC50,CLK1,0.0216 µM
same,viral titer fold change,SARS-CoV-2,0.56
same,log10 (TCID50/ml) Batch-effect corrected,"SARS-CoV-2; 10 μM, 2nd batch replicates, listed as Compund 1",7.6 and 7.44 and 7.41
same,log10 (TCID50/ml),"SARS-CoV-2; 10 μM, raw, single replicates of 1st and 2nd batch, listed as Compund 1",7.5 (2×) and 7.25 and 6.75 and 6.5 and 6.45
same,viral titer,"SARS-CoV-2; Calu-3 pre-treated 24 h with 10 μM, MOI 0.01, 48 hours pi, DMSO control 5.18×10^7",2.90×10^7
same,splice-switching for OAS1 with the A-allele (RT-PCR),[1],suppressing p42 splicing while promoting p44a and p44b variant production
